From BindingDB's records for doi:10.1039/c5md00579e (The Scripps Research Institute, 2016)

test: Inhibition of MCT1 in human Raji cells assessed as inhibition of cell proliferation after 96 hrs by MTT assay

Row | Structure (SMILES) | EC50
1 | CC(C)Cc1nn(C)c(=O)c2c(SCCCO)n(Cc3ccnc(Cl)c3)cc12 | 1000 nM
2 | CC(C)Cc1nn(C)c(=O)c2c(SCCCO)n(Cc3cc(Cl)nc4ccccc34)cc12 | 60 nM
3 | CC(C)Cc1nn(C)c(=O)c2c(SCCCO)n(Cc3ccnc(NCCCCCN)c3)cc12 | 520 nM
4 | CC(C)Cc1nn(C)c(=O)c2c(SCCCO)n(Cc3ccc(NCCCCCN)nc3)cc12 | 420 nM
5 | CC(C)Cc1nn(C)c(=O)c2c(SCCCO)n(Cc3ccnc(NCCCCCNC(=O)[C@@H](N)CCC(N)=O)c3)cc12 | 500 nM
6 | CC(C)Cc1nn(C)c(=O)c2c(SCCCO)n(Cc3ccc(NCCCCCNC(=O)[C@@H](N)CCC(N)=O)nc3)cc12 | 100 nM
7 | CC(C)Cc1nn(C)c(=O)c2c(SCCCO)n(Cc3ccc(Cl)nc3)cc12 | 690 nM

The next compounds have a lower EC50 than those just listed; values first:

Row | EC50 | Structure (SMILES)
8 | 55 nM | CC(C)Cc1nn(C)c(=O)c2c(SCCCO)n(Cc3cnc(Cl)c4ccccc34)cc12
9 | 24 nM | CC(C)Cc1nn(C)c(=O)c2c(SCCCO)n(Cc3cc(NCCCCCN)nc4ccccc34)cc12
10 | 0.8 nM | CC(C)Cc1nn(C)c(=O)c2c(SCCCO)n(Cc3cnc(NCCCCCN)c4ccccc34)cc12
11 | 0.8 nM | CC(C)Cc1nn(C)c(=O)c2c(SCCCO)n(Cc3cc(NCCCCCNC(=O)[C@@H](N)CCC(N)=O)nc4ccccc34)cc12
12 | 0.16 nM | CC(C)Cc1nn(C)c(=O)c2c(SCCCO)n(Cc3cnc(NCCCCCNC(=O)[C@@H](N)CCC(N)=O)c4ccccc34)cc12
13 | 0.8 nM | CC(C)Cc1nn(C)c(=O)c2c(SCCCO)n(Cc3ccc(C#CCCCOc4ccc(C[C@H](N)C(=O)O)cc4)c4ccccc34)cc12
14 | 4 nM | CC(C)Cc1nn(C)c(=O)c2c(SCCCO)n(Cc3ccc(C#CCCCNC(=O)[C@@H](N)CCC(N)=O)c4ccccc34)cc12
15 | 11 nM | CC(C)Cc1nn(C)c(=O)c2c(SCCCO)n(Cc3ccc(Br)c4ccccc34)cc12
